This is an account of results in patent US20240343704A1, “HALO-SUBSTITUTED AMINO PYRIDINE COMPOUNDS AS INHIBITORS OF THE HAEMATOPOIETIC PROGENITOR KINASE 1 (HPK1)” (priority 2021, published 2024).

The target in one test is Lck (h) (Homo sapiens, UniProt P06239). Kind of test: Lck Human  Kinase Enzymatic Radiometric Assay. Type of test: biochemical. As to conditions: read-out: Lck IC50 nM Range*. The gist of the method: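 Substrate 33P-incorporation measured by scintillation counting after spotting on P30 filtermat and phosphoric acid washes. Human Lck reacted 40 min at RT in 50 mM Tris pH 7.5 with 10 mM MgAcetate, [gamma-33P]-ATP, 250 uM Cdc2 peptide, 0.1 mM EGTA and 0.1 mM Na3VO4.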
Sequence of Lck (h) (P06239 whole entry): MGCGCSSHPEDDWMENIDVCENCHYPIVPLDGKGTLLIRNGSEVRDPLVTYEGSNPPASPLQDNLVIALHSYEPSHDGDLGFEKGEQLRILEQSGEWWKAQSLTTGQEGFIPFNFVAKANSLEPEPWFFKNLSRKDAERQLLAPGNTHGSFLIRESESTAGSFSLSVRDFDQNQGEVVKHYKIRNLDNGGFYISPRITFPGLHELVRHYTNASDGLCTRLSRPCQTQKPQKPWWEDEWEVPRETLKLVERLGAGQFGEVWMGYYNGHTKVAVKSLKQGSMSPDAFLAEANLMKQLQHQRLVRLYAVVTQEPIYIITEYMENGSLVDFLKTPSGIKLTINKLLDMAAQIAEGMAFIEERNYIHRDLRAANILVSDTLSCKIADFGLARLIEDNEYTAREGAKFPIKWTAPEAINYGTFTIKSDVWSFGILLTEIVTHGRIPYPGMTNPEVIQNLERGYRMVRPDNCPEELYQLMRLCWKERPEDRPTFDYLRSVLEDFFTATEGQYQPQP

Test [1] deals with T1, Recombinant (1-346) HPK1 (h) (Homo sapiens, UniProt Q92918).
T1 construct: Recombinant (1-346) HPK1 (h) is incubated with 8 mM MOPS pH 7.0
T1 sequence (Q92918 1-346): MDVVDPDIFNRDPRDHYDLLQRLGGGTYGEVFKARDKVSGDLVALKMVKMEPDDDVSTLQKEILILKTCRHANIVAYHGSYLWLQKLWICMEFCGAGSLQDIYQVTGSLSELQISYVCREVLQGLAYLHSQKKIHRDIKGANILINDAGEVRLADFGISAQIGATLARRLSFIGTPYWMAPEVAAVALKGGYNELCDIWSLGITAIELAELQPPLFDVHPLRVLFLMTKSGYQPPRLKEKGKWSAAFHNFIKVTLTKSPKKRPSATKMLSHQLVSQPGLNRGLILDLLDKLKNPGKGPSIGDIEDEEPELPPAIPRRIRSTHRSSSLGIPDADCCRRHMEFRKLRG
Kind of test: HPK1 Human STE Kinase Enzymatic Radiometric Assay. Conditions: read-out: HPK1 IC50 nM Range*. In kind it is biochemical. The procedure:
A stock solution of 10 mM of test compound is prepared in DMSO. The compound plate was prepared by 3-fold and 9-point serial dilutions. […] The reaction is initiated by The addition of the Mg/ATP mix. After incubation for 40 minutes at RT, the reaction is stopped by the addition of phosphoric acid to a concentration of 0.5%.

As to `Nc1nc(F)c(-c2ccc([C@]34CNC[C@H]3C4)cc2)cc1-c1ccc2c(c1)CCNC2=O` [I-135, 6-(5-(4-((1R,5S)-3-azabicyclo[3.1.0]hexan-1-yl)phenyl)-2-amino-6-fluoropyridin-3-yl)-3,4-dihydroisoquinolin-1(2H)-one], the figures for the IC50 (on Lck (h); in test [1]) were more than 1000 nM and 0.1 to 10 nM, respectively.

As to `CC(C)[C@H]1CN(c2ccc(-c3cc(-c4ccc5c(c4)CCNC5=O)c(N)nc3Cl)cc2)CCO1` [I-136, (S)-6-(2-amino-6-chloro-5-(4-(2-isopropylmorpholino)phenyl)pyridin-3-yl)-3,4-dihydroisoquinolin-1(2H)-one], the IC50 (usually the concentration needed to halve the response being measured) on Lck (h) was more than 1000 nM; in test [1], 101 to 1000 nM.

Take `CC(C)[C@@H]1CN(c2ccc(-c3cc(-c4ccc5c(c4)CCNC5=O)c(N)nc3Cl)c(F)c2)CCO1` [I-137, (R)-6-(2-amino-6-chloro-5-(2-fluoro-4-(2-isopropylmorpholino)phenyl)pyridin-3-yl)-3,4-dihydroisoquinolin-1(2H)-one]: the figures for the IC50 (on Lck (h); in test [1]) were more than 1000 nM and 11 to 100 nM, respectively.

As to `Nc1nc(F)c(-c2ccc(C3=CCN(CCO)CC3)cc2)cc1-c1ccc2c(c1)CCNC2=O` [I-138, 6-(2-amino-6-fluoro-5-(4-(1-(2-hydroxyethyl)-1,2,3,6-tetrahydropyridin-4-yl)phenyl)pyridin-3-yl)-3,4-dihydroisoquinolin-1(2H)-one], the IC50 is more than 1000 nM on Lck (h) and 0.1 to 10 nM in test [1].

Consider `COCCN1CC=C(c2ccc(-c3cc(-c4ccc5c(c4)CCNC5=O)c(N)nc3F)cc2)CC1` [I-139, 6-(2-amino-6-fluoro-5-(4-(1-(2-methoxyethyl)-1,2,3,6-tetrahydropyridin-4-yl)phenyl)pyridin-3-yl)-3,4-dihydroisoquinolin-1(2H)-one], for which the figures for the IC50 (at Lck (h); in test [1]) were more than 1000 nM and 0.1 to 10 nM, respectively.

With `COCCN1C[C@H]2C[C@@]2(c2ccc(-c3cc(-c4ccc5c(c4)CCNC5=O)c(N)nc3F)cc2)C1` [I-140, 6-(2-amino-6-fluoro-5-(4-((1R,5S)-3-(2-methoxyethyl)-3-azabicyclo[3.1.0]hexan-1-yl)phenyl)pyridin-3-yl)-3,4-dihydroisoquinolin-1(2H)-one], the IC50 was more than 1000 nM at Lck (h) and 0.1 to 10 nM in test [1].

For the molecule `CC(C)N1C[C@H]2C[C@@]2(c2ccc(-c3cc(-c4cc5c(cc4F)C(=O)NCC5)c(N)nc3F)cc2)C1` [I-141, 6-(2-amino-6-fluoro-5-(4-((1R,5S)-3-isopropyl-3-azabicyclo[3.1.0]hexan-1-yl)phenyl)pyridin-3-yl)-7-fluoro-3,4-dihydroisoquinolin-1(2H)-one], the concentration for half-maximal inhibition (IC50) is more than 1000 nM on Lck (h) and 0.1 to 10 nM in test [1].

Consider `CC(C)N1C[C@@H]2C[C@]2(c2ccc(-c3cc(-c4cc5c(cc4F)C(=O)NCC5)c(N)nc3F)cc2)C1` [I-142, 6-(2-amino-6-fluoro-5-(4-((1S,5R)-3-isopropyl-3-azabicyclo[3.1.0]hexan-1-yl)phenyl)pyridin-3-yl)-7-fluoro-3,4-dihydroisoquinolin-1(2H)-one], for which the IC50 is more than 1000 nM on Lck (h) and 0.1 to 10 nM in test [1].

In the case of `CC(C)C(=O)N1C[C@H]2C[C@@]2(c2ccc(-c3cc(-c4ccc5c(c4)CCNC5=O)c(N)nc3F)cc2)C1` [I-143, 6-(2-amino-6-fluoro-5-(4-((1R,5S)-3-isobutyryl-3-azabicyclo[3.1.0]hexan-1-yl)phenyl)pyridin-3-yl)-3,4-dihydroisoquinolin-1(2H)-one], the IC50 was more than 1000 nM on Lck (h) and 0.1 to 10 nM in test [1].

As for `C[C@H]1CC(Oc2ccc(-c3cc(-c4ccc5c(c4)CCNC5=O)c(N)nc3F)cc2)C[C@H](C)N1` (stereo partly drawn) [I-144, 6-(2-amino-5-(4-(((2S,6S)-2,6-dimethylpiperidin-4-yl)oxy)phenyl)-6-fluoropyridin-3-yl)-3,4-dihydroisoquinolin-1(2H)-one], the IC50 at Lck (h) lay in the range of 101 to 1000 nM; in test [1], 0.1 to 10 nM.

In the case of `Nc1nc(F)c(-c2ccc(OC3CCNCC3)c3c2OCO3)cc1-c1ccc2c(c1)CCNC2=O` [I-145, 6-(2-amino-6-fluoro-5-(7-(piperidin-4-yloxy)benzo[d][1,3]dioxol-4-yl)pyridin-3-yl)-3,4-dihydroisoquinolin-1(2H)-one], the IC50 at Lck (h) is more than 1000 nM; in test [1] it was 0.1 to 10 nM.

Take `Nc1nc(F)c(-c2ccc(OC3CNC3)cc2)cc1-c1ccc2c(c1)CCNC2=O` [I-146, 6-(2-amino-5-(4-(azetidin-3-yloxy)phenyl)-6-fluoropyridin-3-yl)-3,4-dihydroisoquinolin-1(2H)-one]: the IC50 on Lck (h) is more than 1000 nM; in test [1], 11 to 100 nM.

Regarding `CC1(C)CC(Oc2ccc(-c3cc(-c4ccc5c(c4)CCNC5=O)c(N)nc3F)cc2)CCN1` (centres unmarked) [I-147, 6-(2-amino-5-(4-((2,2-dimethylpiperidin-4-yl)oxy)phenyl)-6-fluoropyridin-3-yl)-3,4-dihydroisoquinolin-1(2H)-one], the IC50 at Lck (h) is more than 1000 nM; in test [1], 0.1 to 10 nM.

As for `Nc1nc(F)c(-c2ccc(OC3CCNCC3)c(F)c2F)cc1-c1ccc2c(c1)CCNC2=O` [I-148, 6-(2-amino-5-(2,3-difluoro-4-(piperidin-4-yloxy)phenyl)-6-fluoropyridin-3-yl)-3,4-dihydroisoquinolin-1(2H)-one], the IC50 on Lck (h) was more than 1000 nM; in test [1], 11 to 100 nM.

Consider `Nc1nc(F)c(-c2cc(F)c(OC3CCNCC3)cc2F)cc1-c1ccc2c(c1)CCNC2=O` [I-149, 6-(2-amino-5-(2,5-difluoro-4-(piperidin-4-yloxy)phenyl)-6-fluoropyridin-3-yl)-3,4-dihydroisoquinolin-1(2H)-one], for which the values for the IC50 (on Lck (h); in test [1]) were more than 1000 nM and 11 to 100 nM, respectively.

As to `COc1cc(OC2CCNCC2)ccc1-c1cc(-c2ccc3c(c2)CCNC3=O)c(N)nc1F` [I-150, 6-(2-amino-6-fluoro-5-(2-methoxy-4-(piperidin-4-yloxy)phenyl)pyridin-3-yl)-3,4-dihydroisoquinolin-1(2H)-one], the IC50 on Lck (h) was more than 1000 nM; in test [1], 11 to 100 nM.

Regarding `COc1cc(-c2cc(-c3ccc4c(c3)CCNC4=O)c(N)nc2F)ccc1OC1CCNCC1` [I-151, 6-(2-amino-6-fluoro-5-(3-methoxy-4-(piperidin-4-yloxy)phenyl)pyridin-3-yl)-3,4-dihydroisoquinolin-1(2H)-one], the IC50 at Lck (h) is more than 1000 nM; in test [1] it was 11 to 100 nM.

Take `Nc1nc(F)c(-c2ccc(C3CCN(C4COC4)CC3)cc2)cc1-c1ccc2c(c1)CCNC2=O` [I-152, 6-(2-amino-6-fluoro-5-(4-(1-(oxetan-3-yl)piperidin-4-yl)phenyl)pyridin-3-yl)-3,4-dihydroisoquinolin-1(2H)-one]: the IC50 at Lck (h) is more than 1000 nM; in test [1], 0.1 to 10 nM.

Take `Nc1nc(F)c(-c2ccc(C3CCCCN3C3COC3)cc2)cc1-c1ccc2c(c1)CCNC2=O` (centres unmarked) [I-153, 6-(2-amino-6-fluoro-5-(4-(1-(oxetan-3-yl)piperidin-2-yl)phenyl)pyridin-3-yl)-3,4-dihydroisoquinolin-1(2H)-one]: the IC50 at Lck (h) was more than 1000 nM; in test [1], 11 to 100 nM.

For `Nc1nc(F)c(-c2ccc(C3COCCN3C3COC3)cc2)cc1-c1ccc2c(c1)CCNC2=O` (centres unmarked) [I-154, 6-(2-amino-6-fluoro-5-(4-(4-(oxetan-3-yl)morpholin-3-yl)phenyl)pyridin-3-yl)-3,4-dihydroisoquinolin-1(2H)-one], the results for the IC50 (at Lck (h); in test [1]) were more than 1000 nM and 11 to 100 nM, respectively.

With `Nc1nc(F)c(-c2ccc(C3=CCN(C4COC4)CC3)cc2)cc1-c1ccc2c(c1)CCNC2=O` [I-155, 6-(2-amino-6-fluoro-5-(4-(1-(oxetan-3-yl)-1,2,3,6-tetrahydropyridin-4-yl)phenyl)pyridin-3-yl)-3,4-dihydroisoquinolin-1(2H)-one], the results for the 50% inhibitory concentration (IC50) (at Lck (h); in test [1]) were more than 1000 nM and 0.1 to 10 nM, respectively.

`Nc1nc(F)c(-c2ccc([C@@]34C[C@@H]3CN(C3COC3)C4)cc2)cc1-c1ccc2c(c1)CCNC2=O` [I-156, 6-(2-amino-6-fluoro-5-(4-((1R,5S)-3-(oxetan-3-yl)-3-azabicyclo[3.1.0]hexan-1-yl)phenyl)pyridin-3-yl)-3,4-dihydroisoquinolin-1(2H)-one]: the IC50 is more than 1000 nM on Lck (h) and 0.1 to 10 nM in test [1].

For `CN(C)C1CCN(c2ccc(-c3cc(-c4ccc5c(c4)CCNC5=O)c(N)nc3F)cc2)C1` (centres unmarked) [I-157, 6-(2-amino-5-(4-(3-(dimethylamino)pyrrolidin-1-yl)phenyl)-6-fluoropyridin-3-yl)-3,4-dihydroisoquinolin-1(2H)-one], the figures for the IC50 (at Lck (h); in test [1]) were more than 1000 nM and 0.1 to 10 nM, respectively.

For `CCN(C)C1CCN(c2ccc(-c3cc(-c4ccc5c(c4)CCNC5=O)c(N)nc3F)cc2)C1` (centres unmarked) [I-158, 6-(2-amino-5-(4-(3-(ethyl(methyl)amino)pyrrolidin-1-yl)phenyl)-6-fluoropyridin-3-yl)-3,4-dihydroisoquinolin-1(2H)-one], the half-inhibitory concentration (IC50) on Lck (h) lay within 101 to 1000 nM; in test [1] it was 0.1 to 10 nM.

Take `CN(CC(F)(F)F)C1CCN(c2ccc(-c3cc(-c4ccc5c(c4)CCNC5=O)c(N)nc3F)cc2)C1` (centres unmarked) [I-159, 6-(2-amino-6-fluoro-5-(4-(3-(methyl(2,2,2-trifluoroethyl)amino)pyrrolidin-1-yl)phenyl)pyridin-3-yl)-3,4-dihydroisoquinolin-1(2H)-one]: the figures for the IC50 (on Lck (h); in test [1]) were more than 1000 nM and 0.1 to 10 nM, respectively.
